Measured values as given in the NIST ThermoML archive (doi:10.1021/je900672g).

Assay: isobaric coefficient of expansion
Details: Liquid, DSC

CC[N+](=O)[O-] [nitroethane]
isobaric coefficient of expansion
Details | 278.15 K | 288.15 K | 298.15 K | 308.15 K | 318.15 K | 328.15 K | 338.15 K | 348.15 K
5000 kPa | 0.00113 1/K | 0.00114 1/K | 0.00115 1/K | 0.00117 1/K | 0.00119 1/K | 0.0012 1/K | 0.00122 1/K | 0.00126 1/K
10000 kPa | 0.0011 1/K | 0.00111 1/K | 0.00112 1/K | 0.00114 1/K | 0.00116 1/K | 0.00116 1/K | 0.00119 1/K | 0.00121 1/K
15000 kPa | 0.00109 1/K | 0.00109 1/K | 0.0011 1/K | 0.00111 1/K | 0.00113 1/K | 0.00113 1/K | 0.00114 1/K | 0.00117 1/K
20000 kPa | 0.00106 1/K | 0.00107 1/K | 0.00107 1/K | 0.00109 1/K | 0.0011 1/K | 0.0011 1/K | 0.00111 1/K | 0.00112 1/K
25000 kPa | 0.00104 1/K | 0.00105 1/K | 0.00105 1/K | 0.00106 1/K | 0.00107 1/K | 0.00107 1/K | 0.00108 1/K | 0.0011 1/K
30000 kPa | 0.00102 1/K | 0.00103 1/K | 0.00103 1/K | 0.00104 1/K | 0.00105 1/K | 0.00104 1/K | 0.00106 1/K | 0.00107 1/K
35000 kPa | 0.00101 1/K | 0.00101 1/K | 0.00101 1/K | 0.00102 1/K | 0.00102 1/K | 0.00103 1/K | 0.00103 1/K | 0.00104 1/K
40000 kPa | 0.000984 1/K | 0.000987 1/K | 0.000993 1/K | 0.000994 1/K | 0.000999 1/K | 0.001 1/K | 0.00101 1/K | 0.00101 1/K
45000 kPa | 0.000973 1/K | 0.000972 1/K | 0.000973 1/K | 0.000977 1/K | 0.000981 1/K | 0.000984 1/K | 0.000982 1/K | 0.000989 1/K
50000 kPa | 0.000958 1/K | 0.00096 1/K | 0.00096 1/K | 0.000961 1/K | 0.000964 1/K | 0.000964 1/K | 0.000964 1/K | 0.000966 1/K
55000 kPa | 0.00094 1/K | 0.000944 1/K | 0.000941 1/K | 0.000942 1/K | 0.000945 1/K | 0.000944 1/K | 0.000945 1/K | 0.000947 1/K

O=[N+]([O-])c1ccccc1 [nitrobenzene]
isobaric coefficient of expansion
Details | 288.15 K | 298.15 K | 308.15 K | 318.15 K | 328.15 K | 338.15 K | 348.15 K
5000 kPa | 0.000818 1/K | 0.000823 1/K | 0.000827 1/K | 0.000832 1/K | 0.000837 1/K | 0.000843 1/K | 0.000852 1/K
10000 kPa | 0.000813 1/K | 0.000808 1/K | 0.000812 1/K | 0.00082 1/K | 0.000821 1/K | 0.000828 1/K | 0.000827 1/K
15000 kPa | 0.000797 1/K | 0.0008 1/K | 0.000799 1/K | 0.000802 1/K | 0.000802 1/K | 0.000806 1/K | 0.000811 1/K
20000 kPa | 0.000785 1/K | 0.000785 1/K | 0.000787 1/K | 0.000792 1/K | 0.000787 1/K | 0.00079 1/K | 0.000794 1/K
25000 kPa | 0.000775 1/K | 0.000772 1/K | 0.000773 1/K | 0.000774 1/K | 0.000774 1/K | 0.000775 1/K | 0.00078 1/K
30000 kPa | 0.000762 1/K | 0.000762 1/K | 0.00076 1/K | 0.000762 1/K | 0.000761 1/K | 0.000762 1/K | 0.000764 1/K
35000 kPa | 0.000749 1/K | 0.000752 1/K | 0.00075 1/K | 0.000749 1/K | 0.00075 1/K | 0.000751 1/K | 0.00075 1/K
40000 kPa | 0.00074 1/K | 0.000742 1/K | 0.000737 1/K | 0.000737 1/K | 0.000739 1/K | 0.000736 1/K | 0.000734 1/K
45000 kPa | 0.000729 1/K | 0.000731 1/K | 0.000728 1/K | 0.000729 1/K | 0.000726 1/K | 0.000725 1/K | 0.000721 1/K
50000 kPa | 0.000725 1/K | 0.000722 1/K | 0.000719 1/K | 0.000718 1/K | 0.000716 1/K | 0.000715 1/K | 0.000711 1/K
55000 kPa | 0.000717 1/K | 0.000714 1/K | 0.00071 1/K | 0.00071 1/K | 0.000707 1/K | 0.000708 1/K | 0.000701 1/K

CCC[N+](=O)[O-] [1-nitropropane]
isobaric coefficient of expansion
Details | 278.15 K | 288.15 K | 298.15 K | 308.15 K | 318.15 K | 328.15 K | 338.15 K | 348.15 K
5000 kPa | 0.00105 1/K | 0.00106 1/K | 0.00108 1/K | 0.00109 1/K | 0.00113 1/K | 0.00115 1/K | 0.00119 1/K | 0.00122 1/K
10000 kPa | 0.00103 1/K | 0.00104 1/K | 0.00105 1/K | 0.00106 1/K | 0.00109 1/K | 0.00111 1/K | 0.00113 1/K | 0.00117 1/K
15000 kPa | 0.00101 1/K | 0.00101 1/K | 0.00103 1/K | 0.00104 1/K | 0.00106 1/K | 0.00107 1/K | 0.00109 1/K | 0.00111 1/K
20000 kPa | 0.000982 1/K | 0.000991 1/K | 0.001 1/K | 0.00101 1/K | 0.00103 1/K | 0.00104 1/K | 0.00105 1/K | 0.00107 1/K
25000 kPa | 0.000966 1/K | 0.000972 1/K | 0.000977 1/K | 0.000986 1/K | 0.000995 1/K | 0.00101 1/K | 0.00102 1/K | 0.00103 1/K
30000 kPa | 0.000943 1/K | 0.000954 1/K | 0.000958 1/K | 0.000963 1/K | 0.000976 1/K | 0.000981 1/K | 0.000988 1/K | 0.000996 1/K
35000 kPa | 0.000933 1/K | 0.000932 1/K | 0.000941 1/K | 0.000945 1/K | 0.000952 1/K | 0.000957 1/K | 0.000964 1/K | 0.000967 1/K
40000 kPa | 0.000913 1/K | 0.000916 1/K | 0.00092 1/K | 0.000921 1/K | 0.000927 1/K | 0.00093 1/K | 0.00093 1/K | 0.000932 1/K
45000 kPa | 0.000902 1/K | 0.000902 1/K | 0.000904 1/K | 0.000906 1/K | 0.00091 1/K | 0.000912 1/K | 0.000914 1/K | 0.000915 1/K
50000 kPa | 0.000885 1/K | 0.000887 1/K | 0.000889 1/K | 0.000891 1/K | 0.000895 1/K | 0.000894 1/K | 0.000894 1/K | 0.000894 1/K
55000 kPa | 0.000871 1/K | 0.000874 1/K | 0.000875 1/K | 0.000873 1/K | 0.00088 1/K | 0.00088 1/K | 0.000883 1/K | 0.000879 1/K
